Results taken from PubChem BioAssay AID1919009 (Molecular Pharmacology Branch, DTP, NCI, 2023).
“And” between values parts separate entries of the source, which are not always exact repeats. Equal entries are not always repeated. Each block holds one compound with its values, some of them ahead of it.

Test system: K24384-001-R-PDC complex spheroid growth
Test: Anticancer human tumor K24384-001-R-PDC patient-derived pancreatic adenocarcinoma cell line growth inhibition [AhR]
Conditions: for viability, T/C: stronger effect = lower value
Excerpt: Multicellular complex tumor spheroid response to aryl hydrocarbon receptor antagonists in combination with a variety of drugs and investigational agents in selected tumor cell lines
The current study was undertaken to assess response to aryl hydrocarbon receptor antagonists in combination with standard-of-care drugs and investigational agents in solid tumor complex spheroid models. Complex spheroids include a stromal component modeled by human endothelial cells (HUVEC) and fibroblasts modeled by human mesenchymal stem cells (MSCs). The concentration ranges selected for each drug and investigational agent were based upon clinically achievable concentrations if the clinical Cmax of the agent was known.
Compounds. The drugs and investigational agents: BAY 2416964 (NSC825713), GNF351 (NSC835774), CH-223191 (NSC835775), CPI-455 (NSC825282), aza-TdCyd (NSC777586), decitabine (NSC127716), belinostat (NSC758774), entinostat (NSC756642), pevonedistat (NSC761192), tazemetostat (NSC777109), talazoparib (NSC765396), olaparib (NSC753686), selinexor (NSC780203), nedisertib (M3814, NSC802822), bortezomib (NSC756655), venetoclax (NSC766270), doxorubicin (NSC123127), elimusertib (BAY189344, NSC800525), ceralasertib (AZD6738, NSC777638), TAK-243 (NSC785004), alisertib (NSC759677), etoposide (NSC141540), topotecan (NSC609699), eribulin (NSC707389), gemcitabine (NSC613327), carboplatin (NSC241240), cisplatin (NSC119875), and SN-38 (NSC673596) were obtained from the National Cancer Institute (NCI) Developmental Therapeutics Program Chemical Repository (32). The FDA-approved anticancer drug set is available from the Developmental Therapeutics Program at https://dtp.cancer.gov/organization/dscb/obtaining/available plates.htm. […] The stock solutions were prepared in dimethyl sulfoxide (DMSO, Sigma-Aldrich, St. Louis, MO, cat. D2650), except for the platinum compounds which were prepared in saline (Quality Biological, Gaithersburg, MD, cat. 114-055-101), at 800-fold the tested concentration and stored at -70 degrees C prior to their use. All drugs and investigational agents were tested over a range starting from a high concentration at or near the clinical Cmax and decreasing in half-log increments. If the clinical Cmax for an agent had not been determined, the highest concentration tested was 10 microM (Table 1).
Cell Culture. All cells were maintained in an incubator at 37 degrees C and 5% CO2 with 95% humidity. The PDC lines were cultured according to standard operating procedures established by the NCI PDMR (https://pdmr.cancer.gov). Briefly, all PDCs were thawed and cultured in Matrigel-coated flasks prepared with a working solution of 1X Ham's F-12 nutrient mix, without supplementation (Invitrogen, Waltham, MA, cat. 11765054), 100 U/mL penicillin-streptomycin (Invitrogen, cat. 15140122), and 2.5% Matrigel (Corning Inc., Corning, NY, cat. 354248) for the first three passages. All PDCs were cultured in complete DMEM/F-12 media containing advanced DMEM/F-12 (Invitrogen, cat. 12634028), 4.9% defined fetal bovine serum, heat inactivated (HyClone Laboratories Inc., Logan, UT, cat. SH30070.03HI), 389 ng/mL hydrocortisone (Sigma-Aldrich, cat. H4001), 9.7 ng/mL human EGF recombinant protein (Invitrogen, cat. PHG0313), 23.4 microg/mL adenine (Sigma-Aldrich, cat. A2786), 97.3 U/mL penicillin-streptomycin (Invitrogen, cat. 15140122), 1.9 mM L-glutamine (Invitrogen, cat. 25030081), and 9.7 microM Y-27632 dihydrochloride (Tocris Bioscience, Bristol, United Kingdom, cat. 1254). The PDCs were cultured in complete DMEM/F12 media without 10 microM Y-27632 dihydrochloride for at least two passages prior to the screen. The established cell lines NCI-H1341 and […] were cultured in DMEM/F-12, HEPES (Invitrogen, cat. 11330032), 5% defined fetal bovine serum (HyClone Laboratories Inc., cat. SH30070.03), ITS premix universal culture supplement [insulin (5 microg/mL), transferrin (5 microg/mL), and selenious acid (5 ng/mL)] […]
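Wherever viability, T/C is given: percent of DMSO vehicle-treated spheroid viability set as 100%.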

IC50 (curve of compound): 93.2 nM and 92.7 nM and 202 nM
Structure (SMILES): CC1COCCN1c1cc(-c2ccnn2C)c2ccnc(-c3ccn[nH]3)c2n1 (stereo not drawn)
viability, T/C (compound 0.00316 µM): 93% and 95.6% and 116%
viability, T/C (compound 0.01 µM): 92.2% and 102% and 116%
viability, T/C (compound 0.0316 µM): 82.7% and 80.5% and 89%
viability, T/C (compound 0.1 µM): 47.8% and 48.9% and 65%
viability, T/C (compound 0.316 µM): 30.6% and 29.8% and 41.7%
viability, T/C (compound 1 µM): 27.8% and 28.6% and 29.4%

IC50 (curve of compound): 6470 nM and 4310 nM and 7580 nM
Structure (SMILES): CC1COCCN1c1cc(C2(S(C)(=N)=O)CC2)nc(-c2ccnc3[nH]ccc23)n1 (stereo not drawn)
viability, T/C (compound 0.0316 µM): 107% and 105% and 126%
viability, T/C (compound 0.1 µM): 98.2% and 113% and 97.1%
viability, T/C (compound 0.316 µM): 105% and 102% and 95.6%
viability, T/C (compound 1 µM): 85% and 85.7% and 89.4%
viability, T/C (compound 3.16 µM): 71.8% and 56.9% and 59.7%
viability, T/C (compound 10 µM): 37.3% and 32.7% and 45.1%

IC50 (curve of compound): > 3000 nM
Structure (SMILES): CCN(c1cc(-c2ccc(CN3CCOCC3)cc2)cc(C(=O)NCc2c(C)cc(C)[nH]c2=O)c1C)C1CCOCC1
viability, T/C (compound 0.00949 µM): 108% and 104% and 103%
viability, T/C (compound 0.03 µM): 116% and 114% and 95.3%
viability, T/C (compound 0.0949 µM): 120% and 111% and 97.5%
viability, T/C (compound 0.3 µM): 87.1% and 95.9% and 103%
viability, T/C (compound 0.949 µM): 98.3% and 89% and 90%
viability, T/C (compound 3 µM): 101% (2×) and 87.2%

IC50 (curve of compound): 5510 nM and 7030 nM and > 10000 nM
Structure (SMILES): COc1ccc([C@@H](O)c2cc(-c3ncnc4cc(N5CCOCC5)ccc34)c(F)cc2Cl)nn1
viability, T/C (compound 0.0316 µM): 107% and 86.3% and 109%
viability, T/C (compound 0.1 µM): 101% (2×) and 104%
viability, T/C (compound 0.316 µM): 96.8% and 94.6% and 105%
viability, T/C (compound 1 µM): 76% and 81.3% and 72.5%
viability, T/C (compound 3.16 µM): 63.3% and 73.9% and 71.7%
viability, T/C (compound 10 µM): 37.4% and 39.9% and 49.7%

Continued, compound first:

Structure (SMILES): CC(C)CC(NC(=O)C(Cc1ccccc1)NC(=O)c1cnccn1)B(O)O (stereo not drawn)
viability, T/C (compound 0.000949 µM): 105% and 92.1% and 95.6%
viability, T/C (compound 0.003 µM): 108% and 98.8% and 96.7%
viability, T/C (compound 0.00949 µM): 62.6% and 70.1% and 20.1%
viability, T/C (compound 0.03 µM): 2.24% and 1.22% and 0.66%
viability, T/C (compound 0.0949 µM): 0.59% and 0.38% and 0.4%
viability, T/C (compound 0.3 µM): 0.39% and 0.36% and 1.49%
IC50 (curve of compound): 12 nM and 13.3 nM and 6.03 nM

Structure (SMILES): CC(C)c1c(-c2ccccc2)nc2c(C#N)c[nH]n2c1=O
viability, T/C (compound 0.0316 µM): 108% and 110% and 104%
viability, T/C (compound 0.1 µM): 95% and 105% (2×)
viability, T/C (compound 0.316 µM): 98.1% and 105% and 104%
viability, T/C (compound 1 µM): 93.7% and 93.4% and 98.7%
viability, T/C (compound 3.16 µM): 91.1% and 103% (2×)
viability, T/C (compound 10 µM): 91.9% and 98.8% and 81%
IC50 (curve of compound): > 10000 nM

Structure (SMILES): CC(CO)NC(=O)c1cc(-c2ccc(Cl)cc2)nn(-c2cnn(C)c2)c1=O (stereo not drawn)
IC50 (compound alone, run of 05/31/2022): > 10000 nM

Structure (SMILES): CC1(C)CCC(CN2CCN(c3ccc(C(=O)NS(=O)(=O)c4ccc(NCC5CCOCC5)c([N+](=O)[O-])c4)c(Oc4cnc5[nH]ccc5c4)c3)CC2)=C(c2ccc(Cl)cc2)C1
viability, T/C (compound 0.0316 µM): 104% (2×) and 108%
viability, T/C (compound 0.1 µM): 90.7% and 115% and 103%
viability, T/C (compound 0.316 µM): 90% and 103% and 106%
viability, T/C (compound 1 µM): 111% and 105% and 92.7%
viability, T/C (compound 3.16 µM): 126% and 88.2% and 84.7%
viability, T/C (compound 10 µM): 25.9% and 60.7% and 62.5%
IC50 (curve of compound): 7030 nM and > 10000 nM

Structure (SMILES): CC[C@@]1(O)C(=O)OCc2c1cc1n(c2=O)Cc2cc3c(CN(C)C)c(O)ccc3nc2-1
viability, T/C (compound 0.000316 µM): 107% and 108% and 98.2%
viability, T/C (compound 0.001 µM): 99.3% and 117% and 102%
viability, T/C (compound 0.00316 µM): 95.4% and 87.5% and 95.7%
viability, T/C (compound 0.01 µM): 89.1% and 80% and 82.3%
viability, T/C (compound 0.0316 µM): 77.6% and 75.8% and 57.6%
viability, T/C (compound 0.1 µM): 53.6% and 53.5% and 41.5%
IC50 (curve of compound): > 100 nM and 54.2 nM

Structure (SMILES): CCc1c2c(nc3ccc(O)cc13)-c1cc3c(c(=O)n1C2)COC(=O)[C@]3(O)CC
viability, T/C (compound 0.000949 µM): 70.9% and 79.9% and 78.5%
viability, T/C (compound 0.003 µM): 67% and 71.9% and 67.1%
viability, T/C (compound 0.00949 µM): 58.6% and 52.8% and 65%
viability, T/C (compound 0.03 µM): 43.8% and 54.9% and 51.5%
viability, T/C (compound 0.0949 µM): 38.5% and 51% and 50.3%
viability, T/C (compound 0.3 µM): 27.5% and 39.2% and 36.9%
IC50 (curve of compound): 20.9 nM and 48.4 nM and 58.2 nM

Structure (SMILES): COc1cc(C2c3cc4c(cc3C(OC3OC5COC(C)OC5C(O)C3O)C3COC(=O)C23)OCO4)cc(OC)c1O (stereo not drawn)
viability, T/C (compound 0.0316 µM): 106% and 96.2% and 98%
viability, T/C (compound 0.1 µM): 86.7% and 100% and 103%
viability, T/C (compound 0.316 µM): 60.8% and 83.3% and 80.6%
viability, T/C (compound 1 µM): 53.5% and 62.9% and 58.8%
viability, T/C (compound 3.16 µM): 48.5% and 51% and 43.7%
viability, T/C (compound 10 µM): 39% and 34.7% and 37.7%
IC50 (curve of compound): 1410 nM and 2650 nM and 1830 nM

Structure (SMILES): COc1cc(Nc2ncc3c(n2)-c2ccc(Cl)cc2C(c2c(F)cccc2OC)=NC3)ccc1C(=O)O
viability, T/C (compound 0.0316 µM): 97.3% and 91.9% and 85.7%
viability, T/C (compound 0.1 µM): 68.5% and 72.4% and 74.3%
viability, T/C (compound 0.316 µM): 63.9% and 60% and 69.9%
viability, T/C (compound 1 µM): 44.3% and 55.1% and 50.6%
viability, T/C (compound 3.16 µM): 52.4% and 54.8% and 52.6%
viability, T/C (compound 10 µM): 55.5% and 62.7% and 57%
IC50 (curve of compound): > 10000 nM
